According to patent publication US10981911B2, “Imidazopyrrolopyridine as inhibitors of the JAK family of kinases” (Janssen Pharmaceutica NV, priority 2016, dated 2021):
Like-named read-outs stand apart in the source and are kept apart here.

Legend:
[1] = In vivo p.o. dosing: plasma and colon tissue concentrations (Protocols 1 and 2); parameters: species or system female C57BL/6 mice; conditions: female, C57BL/6, mouse, po, mice, 25 mg/kg p.o.
Procedure: These protocols are described below under the heading In vivo Studies. Three non-fasted female C57BL/6 mice were orally administered test compound at a dose of 25 mg/kg p.o. as a solution in 20% hydroxypropyl-beta-cyclodextrin (HPβCD) at a dose volume of 5 mL/kg. Blood samples were collected at 0.5, 2, and 4 h post dose via retro-orbital bleed or venipuncture of the dorsal metatarsal vein. Blood samples were collected into tubes containing anticoagulant (Heparin-Na) and placed on wet ice. The plasma fraction was separated by centrifugation and frozen at −20° C. for up to 4 h and −80° C. after 4 h unless analyzed shortly after sample collection. Colon samples were collected at 4 h post dose. […] The colon was further washed by putting it in 5 mL of saline and shaken for 5 seconds. The colon sample was then patted dry, weighed, and homogenized as 1 part tissue (g) to 4 parts HPLC grade water (mL). Concentrations of the compound in plasma and colon homogenate were determined using a qualified liquid chromatography-triple quadrupole mass spectrometry (LC-MS/MS) method. […] Three non-fasted female C57BL/6 mice were orally administered test compound at a dose of 25 mg/kg p.o. as a solution in 20% HPβCD at a dose volume of 5 mL/kg. Blood samples were collected at 0.5, 2, and 4 h post dose via retro-orbital bleed or dorsal metatarsal vein. Blood samples were collected into tubes containing anticoagulant (Heparin-Na) and placed on wet ice. The plasma fraction was separated by centrifugation and frozen at −20° C. for up to 4 h and −80° C. after 4 h unless analyzed shortly after sample collection. Colon samples were collected at 4 h post dose. From 2 cm below the cecum, a 4 cm sample of the colon was dissected, cut open on the longitudinal axis, and the solid contents removed by flushing with 2 mL of saline. The colon was further washed by putting it in 5 mL of saline and shaken for 5 seconds. The colon sample was then patted dry, weighed, and homogenized as 1 part tissue (g) to 4 parts HPLC grade water (mL). Concentrations of the compound in plasma and colon homogenate were determined using a qualified liquid chromatography-triple quadrupole mass spectrometry (LC-MS/MS) method.

[2] = Solubility assays in simulated gastric and simulated intestinal fluids; assay type: physicochemical; conditions: thermodynamic from solid, 2-5 days
Procedure: Test compounds were dissolved in DMSO at a concentration of 10 mM. The test compounds were dispensed (20 μL) into Nunc 1-mL-96-Deep-Well-PP plates, and the DMSO was evaporated via nitrogen blow down from a TurboVap 96 for 6 hours or until a dry residue was produced. Then, 400 μL of solubility media was added to the well containing the dry solid. […] After the incubation period, the samples were filtered through an AcroPrep 1-mL-96-Filter plate into a new 2-mL-96-Deep-Well-PP plate, and the supernatants were quantified by UV-HPLC using a 3-point calibration ranging from 0.004-0.55 mM. The solubility for each compound was calculated from the following equation: […] Solubilities are reported as long as the compound under study was sufficiently stable to complete the corresponding solubility determination.

[3] = tested on: P-gp (MDR1); test: MDCK-MDR1 permeability assay; assay type: in vitro ADME; conditions: dog, MDCK-MDR1, pH 7.4, @ 5 μM; for Papp A→B at 60 min, 5 μM: apical to basolateral, without P-gp inhibitor; for Papp B→A at 60 min, 5 μM: basolateral to apical
Procedure: Permeability measurements were conducted according to the Cyprotex protocol using the MDCK-MDR1 cell line obtained from the NIH (Rockville, Md., USA). Cells between passage numbers 6-30 were seeded onto a Multiscreen Plate™ (Millipore) at a cell density of 3.4×10^5 cells/cm^2 and cultured for three days before permeability studies were conducted. The cells in this assay form a cohesive sheet of a single cell layer filing the surface area of the culture dish, also known as a confluent monolayer, and on day four the test compound was added to the apical side of the membrane and the transport of the compound across the monolayer was monitored over a time period of 60 min.
Test compounds were dissolved in DMSO at a concentration of 10 mM. The dosing solutions were prepared by diluting test compound with assay buffer (Hanks Balanced Salt Solution), pH 7.4, at a final concentration of 5 μM. For assessment of apical to basolateral (“A-B”) permeability, buffer was removed from the apical compartment and replaced with test compound dosing solution with or without the permeability glycoprotein (“PgP”, “P-gP”, “Pgp” or “P-gp”) inhibitor elacridar (2 μM). For assessment of basolateral to apical (“B-A”) permeability, buffer was removed from the companion plate and replaced with test compound dosing solution. Incubations were carried out in duplicate at 37° C. in an atmosphere of 5% CO2 with a relative humidity of 95%. Each assay included the reference markers propranolol (high permeability) and prazosin (PgP substrate). After incubation for 60 minutes, apical and basolateral samples were diluted and test compounds quantified by LC/MS/MS using an 8-point calibration in the range 0.0039 to 3 μM with appropriate dilution of the samples (receiver dilution factor=1; donor and C0 dilution factor=10). The permeability coefficient (Papp) for each compound was calculated from the following equation: Papp=(dQ/dt)/(C0×S), where dQ/dt is the rate of permeation of the drug across the cells, C0 is the donor compartment concentration at time zero, and S is the area of the cell monolayer.
The second and third columns in Table 7 show the values of Papp(A-B) for the apical-to-basolateral compound transport without (second column) and with a P-gp inhibitor (third column, noted as P^eapp(A-B)) that was elacridar. Papp(A-B) gives an indication of permeation extent across the cells in this assay, which is envisaged to model the transcellular transport across Pgp-expressing cells, such as Pgp-expressing gastrointestinal tract cells. P^eapp(A-B) values (Papp(A-B) in the presence of the P-gp inhibitor) given in column 3 are determined to confirm the role of P-gp in the compound efflux. […] Test compound efflux ratios are given in the fifth column of Table 7 as Papp(B-A)/Papp(A-B) by using the corresponding permeability coefficient values from the fourth and second columns in the same table.

[4] = colon, read-out: Colon Concentration After p.o. Dosing, Mean
[5] = fassif, simulated intestinal fluid, fasted state pH 6.5, ambient temperature, read-out: SIF solubility
[6] = simulated gastric fluid, ambient temperature, read-out: SGF solubility

Row | concentration at 4 h [1, 4] | concentration at 0.5 h ([1]; plasma, Time = 0.5 h, read-out: Plasma Concentration After p.o. Dosing, Mean) | concentration at 2 h ([1]; plasma, Time = 2 h, read-out: Plasma Concentration After p.o. Dosing, Mean) | concentration at 4 h ([1]; plasma, read-out: Plasma Concentration After p.o. Dosing, Mean) | solubility [2, 5] | solubility [2, 6] | Papp A→B at 60 min, 5 μM [3] | Papp B→A at 60 min, 5 μM [3] | SMILES
1 | 7680 ng/g | 15.1 ng/mL | 6.2 ng/mL | 3.9 ng/mL | > 400 µM | > 400 µM | < 0.4 ×10⁻⁶ cm/s | 1.8 ×10⁻⁶ cm/s | Cn1cc(NC(=O)Cc2nc3cnc4[nH]ccc4c3n2[C@H]2CC[C@H](CC#N)CC2)cn1 [Ex. 38, 2-(1-((1r,4r)-4-(Cyanomethyl)cyclohexyl)-1,6-dihydroimidazo[4,5-d]pyrrolo[2,3-b]pyridin-2-yl)-N-(1-methyl-1H-pyrazol-4-yl)acetamide]
2 | 4780 ng/g | – | – | – | > 400 µM | > 400 µM | < 0.4 ×10⁻⁶ cm/s | 1.1 ×10⁻⁶ cm/s | N#CC[C@H]1CC[C@H](n2c(CC(=O)Nc3cc[nH]n3)nc3cnc4[nH]ccc4c32)CC1 [Ex. 74, 2-(1-((1r,4r)-4-(Cyanomethyl)cyclohexyl)-1,6-dihydroimidazo[4,5-d]pyrrolo[2,3-b]pyridin-2-yl)-N-(1H-pyrazol-3-yl)acetamide]
